Assay [1] has as its system HUVECs. In words: VEGF-induced HUVEC proliferation, [3H]-thymidine incorporation assay. The class given is cell-based, human. To be noted: for IC50: 3 h; for inhibition of VEGF-induced HUVEC proliferation: VEGF 10 ng/ml, [3H]-thymidine incorporation. The protocol:
Human umbilical vein endothelial cells (HUVECs) were cultured in M199 medium, and during experiments, the cells were always used at passages 2 to 7. Meanwhile, mouse melanoma cells (B16F1 and B16F10) and human colorectal tumor cells (HCT116) were cultured in RPMI media supplemented with 10% FBS, 1 mM sodium pyruvate, 10 mM 4-(2-hydroxyethyl)-1-piperazineethanesulfonic acid and 100 U/ml penicillin-streptomycin, and human multiple myeloma cells (IM-9 and RPMI 8226) were cultured in RPMI-1640 media. All of the cells were cultured at 37° C. with 5% CO2 in a humidified incubator.
Angiogenic activity was determined by measuring cell proliferation, migration and tube formation. HUVEC proliferation was analyzed by a [3H]-thymidine incorporation assay. The HUVECs were seeded in a 24-well plate coated with gelatin at a density of 2×10^4 cells/well. […] […] […] 3H-labeled polymer DNA was evaluated with a liquid scintillation counter.

A further assay concerns ERK. Briefly: Western blot, ERK phosphorylation in HUVECs. It is filed as cell-based, human. To be noted: VEGF / VEGF-A stimulated. On the procedure:
Cells were lyzed in RIPA buffer, and 50 μg of proteins were isolated by SDS-PAGE and then transferred to a PVDF membrane. The membrane was reacted with an antibody with respect to a target protein for 2 hours. The membrane was washed twice and reacted with a horseradish peroxidase-conjugated antibody, and then an amount of the target proteins was assessed with an enhanced chemiluminescence system.
For orientation: Immunoblotting shows a protein as a band on a membrane.

The test system of another assay is zebrafish. In words: Zebrafish angiogenesis assay. It is filed as in vivo. To be noted: zebrafish embryo. On the procedure: An adult zebrafish and an embryo were grown and maintained in a standard laboratory environment, and a zebrafish experiment was conducted according to the protocols approved by the animal ethics committee of Chungnam National University. To analyze angiogenesis, at 48 hours post fertilization (hpf), the embryo was anesthetized with tricaine (MS-222, 0.02%, embryo buffer), a peptide was administered, and FITC-dextran (2,000 kDa, Sigma) was further injected. A blood vessel image was obtained with a Leica DM5000B system at 72 hpf. As a probe for whole mount in situ hybridization, digoxigenin (DIG)-labeled RNA prepared by a cad5 (NM_001003983) gene was used. Meanwhile, a peptide was injected into the 18-hpf embryo collected at 25 hpf, fixed with 4% paraformaldehyde, washed with PBS (in 0.1% Tween20), and hybridized with DIG-labeled riboprobes (hybridization buffer). Subsequently, the resulting product was reacted with an alkaline phosphatase (AP)-conjugated anti-DIG antibody. Following reaction with an AP staining solution, a staining status was observed and visualized under a microscope (Leica, MZ-16).

Assay [2] concerns HUVECs. In words: FACS analysis of FITC-RLYE binding to HUVECs. Further details: species or system human. The protocol: HUVECs were cultured in a 60-mm culture plate for 24 hours. The cells were isolated from the plate with 5 mM EDTA-containing phosphate-buffered saline (PBS), washed with PBS three times, and suspended in 2% FBS/0.1% bovine serum albumin-containing PBS. Afterward, before or after the reaction with FITC-conjugated RLYE (SEQ ID NO: 2) (15 nM), the cells were treated with VEGF (100 ng/ml), stored on ice for 30 minutes, fixed in 2% paraformaldehyde, and assessed with a fluorescence activated cell sorter (FACS Calibur, Becton Dickinson) by flow cytometry.
(In flow cytometry, cells or beads pass a laser one at a time.)

Where a SMILES comes first, the peptide text is derived from it. Where no end group is shown, it is not given here. The star is where a group is joined. FITC = O=C1OC2(c3ccc(O)cc3Oc3cc(O)ccc32)c2ccc(NC(=S)*)cc21

Usually IC50 stands for the midpoint of a concentration-inhibition curve. Low readings indicate greater potency, high ones weaker potency.

Consider `CC(C)C[C@H](NC(=O)[C@@H](N)CCCCN)C(=O)N[C@@H](Cc1ccc(O)cc1)C(=O)N[C@@H](CC(=O)O)C(=O)O` [KLYD, reference compound] (H-KLYD-OH; N-terminus and C-terminus assumed), for which, in the assay with HUVECs [1], the IC50 was 0.79 nM and the “inhibition of VEGF-induced HUVEC proliferation” value is reported as “significantly inhibited”.
`CC(C)C[C@H](NC(=O)[C@@H](N)CCCCN)C(=O)N[C@@H](Cc1ccc(O)cc1)C(=O)N[C@@H](CCC(=O)O)C(=O)O` [KLYE] (H-KLYE-OH; N-terminus and C-terminus assumed): in the assay with ERK, the “inhibition of VEGF-induced ERK phosphorylation” value is “more effectively inhibited”. Moreover, in the assay with HUVECs [1], half-maximal inhibition (IC50) was put at 0.3 nM and the “inhibition of VEGF-induced HUVEC proliferation” value is given as “effectively inhibited”.
The corresponding values for `CC(C)C[C@H](NC(=O)[C@@H](N)CCCNC(=N)N)C(=O)N[C@@H](Cc1ccc(O)cc1)C(=O)N[C@@H](CC(=O)O)C(=O)O` [RLYD] (H-RLYD-OH; N-terminus and C-terminus assumed) are “more effectively inhibited”, 0.14 nM and “effectively inhibited”.
Taken in the same sequence, the figures for `CC(C)[C@H](NC(=O)[C@@H](N)CCCNC(=N)N)C(=O)N[C@@H](Cc1ccc(O)cc1)C(=O)N[C@@H](CCC(=O)O)C(=O)O` [RVYE] (H-RVYE-OH; N-terminus and C-terminus assumed) were “more effectively inhibited”, 0.39 nM and “effectively inhibited”.
“EYLR: scrambled peptide against RLYE, used as a control [reference compound]”: in the assay with zebrafish, the “formation of intersegmental vessels (ISV)” value is listed as “did not affect the ISV formation” and the “formation of subintestinal vessels (SIV)” value was “did not affect the SIV formation”. Further, the “inhibition of VEGF-induced HUVEC proliferation” value in the assay on HUVECs [1] is given as “did not exhibit a significant inhibitory effect”.
In the case of “FITC-RLYE: FITC-conjugated RLYE (SEQ ID NO: 2) peptide used for FACS and confocal binding ({FITC}-RLYE)”, the “binding to HUVEC surface (FACS)” value in the assay on HUVECs [2] (VEGF-A-pretreated cells) is “did not bind”; in the assay with HUVECs [2] (cells not treated with VEGF-A), “bound to a cell surface”.
As to “KIYD: synthesized tetrapeptide based on KLYD”, the “inhibition of VEGF-induced HUVEC proliferation” value with HUVECs [1] is recorded as “inhibitory effect similar to the positive control”.
Same read-out and setting: to “KLFD: synthesized tetrapeptide based on KLYD” belongs “inhibitory effect similar to the positive control”; to “KLWD: synthesized tetrapeptide based on KLYD”, “did not exhibit a significant inhibitory effect”.
Same read-out and setting: to “RLME: synthesized tetrapeptide based on KLYD” belongs “did not exhibit a significant inhibitory effect”.

Source of the values: patent US9969771B2, “Tetrapeptide having effect of inhibiting VEGF-induced angiogenesis and use thereof” (AVIXGEN INC., priority 2015, dated 2018).
